Results reported in patent publication US8017769B2, “Colorless water-soluble organic luminophores and intermediates thereof” (priority 2005, dated 2011).

Assays:
[1] = result in words
[2] = colourless aqueous solution

For `O=S(=O)([O-])c1ccc(Nc2nc(Cl)nc(Cl)n2)c(-c2nc3ccccc3s2)c1.[Na+]` [Compound II, Sodium salt of 4-(4,6-dichloro-1,3,5-triazin-2-ylamino)-3-(benzo[d]thiazol-2-yl)benzenesulfonic acid], the solubility in water [1] was “not soluble in water”.
For `O=S(=O)([O-])c1cccc(Nc2nc(Cl)nc(Nc3ccc(S(=O)(=O)[O-])cc3-c3nc4ccccc4s3)n2)c1.[Na+].[Na+]` [Compound III, Disodium salt of 4-[4-Chloro-6-(3-sulfophenylamino)-1,3,5-triazin-2-ylamino]-3-(benzo[d]thiazol-2-yl)benzenesulfonic acid], the solubility in water [1] was “highly soluble in water” and the fluorescence wavelength maximum [2] was 550 nm.
For `O=C([O-])CN(CC(=O)[O-])c1nc(Nc2ccc(S(=O)(=O)[O-])cc2-c2nc3ccccc3s2)nc(N(CC(=O)[O-])CC(=O)[O-])n1.[K+].[K+].[K+].[K+].[K+]` [Compound IV, Pentapotassium salt of 4-{4,6-bis-[di(carboxymethyl)amino]-1,3,5-triazin-2-ylamino}-3-(benzo[d]thiazol-2-yl)benzenesulfonic acid], the solubility in water [1] was “highly soluble in water” and the fluorescence wavelength maximum [2] was 570 nm.
With `O=S(=O)([O-])c1cccc(Nc2nc(Nc3ccc(S(=O)(=O)[O-])cc3-c3nc4ccccc4s3)nc(N3CCOCC3)n2)c1.[Na+].[Na+]` [Compound IX, Disodium salt of 4-[4-(3-sulfophenylamino)-6-morpholino-1,3,5-triazin-2-ylamino]-3-(benzo[d]thiazol-2-yl)benzenesulfonic acid] the solubility in water [1] was “highly soluble in water” and the fluorescence wavelength maximum [2] was 565 nm.
With `O=S(=O)([O-])c1ccc(Nc2nc(Cl)nc(Nc3ccc(S(=O)(=O)[O-])cc3-c3nc4ccccc4s3)n2)c(-c2nc3ccccc3s2)c1.[Na+].[Na+]` [Compound V, Disodium salt of 4-{4-[2-(benzo[d]thiazol-2-yl)-4-sulfophenylamino]-6-chloro-1,3,5-triazin-2-ylamino}-3-(benzo[d]thiazol-2-yl)benzenesulfonic acid] the solubility in water [1] was “poorly soluble in water”.
In the case of `O=S(=O)([O-])c1ccc(Nc2nc(Nc3ccc(S(=O)(=O)[O-])cc3-c3nc4ccccc4s3)nc(N3CCOCC3)n2)c(-c2nc3ccccc3s2)c1.[Na+].[Na+]` [Compound VI, Disodium salt of 4-{4-[2-(benzo[d]thiazol-2-yl)-4-sulfophenylamino]-6-morpholino-1,3,5-triazin-2-ylamino}-3-(benzo[d]thiazol-2-yl)benzenesulfonic acid], the solubility in water [1] is reported as “highly soluble in water” and the fluorescence wavelength maximum [2] is reported as 582 nm.
In the case of `O=C(Nc1ccc(S(=O)(=O)[O-])cc1-c1nc2ccccc2s1)c1ccccc1S(=O)(=O)[O-].[Na+].[Na+]` [Compound VII, Disodium salt of 4-(2-sulfobenzoylamino)-3-(benzoldlthiazol-2-yl)benzenesulfonic acid], the solubility in water [1] is reported as “highly soluble in water” and the fluorescence wavelength maximum [2] is reported as 547 nm.
In the case of `O=C([O-])CNc1nc(Cl)nc(Nc2ccc(S(=O)(=O)[O-])cc2-c2nc3ccccc3s2)n1.[Na+].[Na+]` [Compound VIII, Disodium salt of 4-(4-carboxymethylamino-6-chloro-1,3,5-triazin-2-ylamino)-3-(benzo[d]thiazol-2-yl)benzenesulfonic acid], the solubility in water [1] is reported as “highly soluble in water” and the fluorescence wavelength maximum [2] is reported as 548 nm.
With `O=C([O-])CNc1nc(NCC(=O)[O-])nc(Nc2ccc(S(=O)(=O)[O-])cc2-c2nc3ccccc3s2)n1.[Na+].[Na+].[Na+]` [Compound X, Trisodium salt of 4-[4,6-bis(carboxymethylamino)-1,3,5-triazin-2-ylamino]-3-(benzo[d]thiazol-2-yl)benzenesulfonic acid] the solubility in water [1] was “highly soluble in water” and the fluorescence wavelength maximum [2] was 565 nm.
In the case of `O=S(=O)([O-])c1cccc(Nc2nc(Cl)nc(Nc3ccc(S(=O)(=O)[O-])cc3-c3nc4ccccc4o3)n2)c1.[Na+].[Na+]` [Compound XIII, Disodium salt of 4-[4-chloro-6-(3-sulfophenylamino)-1,3,5-triazin-2-ylamino]-3-(benzo[d]oxazol-2-yl)benzenesulfonic acid], the solubility in water [1] is reported as “highly soluble in water” and the fluorescence wavelength maximum [2] is reported as 517 nm.
With `N.N.N.O=C(O)CN(CC(=O)O)c1nc(Cl)nc(Nc2ccc(S(=O)(=O)O)cc2-c2nc3ccccc3o2)n1` [Compound XIV, Triammonium salt of 4-{4-chloro-6-[di(carboxymethyl)amino]-1,3,5-triazin-2-ylamino}-3-(benzo[d]oxazol-2-yl)benzenesulfonic acid] the solubility in water [1] was “highly soluble in water” and the fluorescence wavelength maximum [2] was 517 mm.
